# Reference: ChEMBL document CHEMBL1201862, “PubChem BioAssay data set” (2004)
# Calls of active or inactive are those of the source.
# Experiments:
# [1] = MC4R antagonists, dose response, counter-screen for LGR2 antagonist project, cell-based, plate reader, cherry pick (AID 743444); format: functional;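 note: transfected HEK 293 cells stimulated with alpha-MSH peptide; potency of inhibitors of the alpha-MSH evoked signal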
# [2] = A549 cell cytotoxicity, dose response, cytotoxicity control, plate reader, cherry-pick, antagonist series (AID 743412); format: functional, cell-based
# [3] = biological target: Aryl hydrocarbon receptor (Homo sapiens, UniProt P35869); experiment: Luminescence-based cell-based high throughput dose response assay for activators of the Aryl Hydrocarbon Receptor (AHR). [Related pubchem assays: 2796 (Primary screen (AHR activators in singlicate)), 2845 (Confirmation screen (AHR activators in triplicate)), 434939 (Counterscreen (PXR activators in triplicate)), 2804 (Summary (AHR activators))]; format: ADME
# [4] = HepG2 cell cytotoxicity, dose response, cytotoxicity control, plate reader, cherry-pick, antagonist series (AID 743416); format: functional, cell-based
# [5] = LGR2 antagonists, dose response, cell-based, HEK293, CRE-luciferase reporter, cherry pick, set 2 (AID 743343); format: functional;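 note: transfected cells were stimulated with diluted bursicon conditioned medium after compound addition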
# [6] = P. falciparum Dd2 growth inhibitors, dose response, SYBR Green, cherry-picked samples (AID 1159567); format: functional, cell-based
# [7] = HepG2 cell cytotoxicity, dose response, cytotoxicity control, cherry-picked samples (AID 1159577); format: functional, cell-based
# [8] = biological target: T1, Methionyl-tRNA synthetase, putative (Trypanosoma brucei brucei, UniProt Q38C91); format: functional, Trypanosoma brucei brucei strain 927/4 GUTat10.1
# T1 sequence (Q38C91 whole entry): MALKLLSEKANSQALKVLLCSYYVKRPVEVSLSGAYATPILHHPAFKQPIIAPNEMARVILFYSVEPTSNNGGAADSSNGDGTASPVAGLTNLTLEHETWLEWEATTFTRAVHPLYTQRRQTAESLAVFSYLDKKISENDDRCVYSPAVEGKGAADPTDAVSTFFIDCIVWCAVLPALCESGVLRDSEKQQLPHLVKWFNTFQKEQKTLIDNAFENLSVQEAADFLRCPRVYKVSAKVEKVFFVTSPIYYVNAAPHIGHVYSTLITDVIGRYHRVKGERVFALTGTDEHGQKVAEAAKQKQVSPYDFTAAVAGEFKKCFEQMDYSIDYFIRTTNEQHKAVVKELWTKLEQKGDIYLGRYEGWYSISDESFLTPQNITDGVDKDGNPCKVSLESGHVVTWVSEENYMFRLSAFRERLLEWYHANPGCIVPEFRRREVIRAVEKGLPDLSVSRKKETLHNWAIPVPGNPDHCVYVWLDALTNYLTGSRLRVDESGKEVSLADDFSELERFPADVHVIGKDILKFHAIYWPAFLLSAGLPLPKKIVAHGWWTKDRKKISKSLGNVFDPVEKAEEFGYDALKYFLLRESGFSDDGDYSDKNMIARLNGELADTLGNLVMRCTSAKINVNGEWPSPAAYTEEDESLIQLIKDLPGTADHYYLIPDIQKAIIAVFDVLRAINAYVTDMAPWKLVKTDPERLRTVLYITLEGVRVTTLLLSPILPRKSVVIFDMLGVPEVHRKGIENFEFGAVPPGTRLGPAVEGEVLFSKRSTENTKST
# [9] = Late stage counterscreen for inhibitors of Trypanosoma brucei methionyl tRNA synthetase (MetRS): Luminescence-based cell-based high throughput dose response assay to identify compounds that are cytotoxic to Jurkat human T lymphocyte cells.; format: functional
# [10] = Counterscreen for inhibitors of Trypanosoma brucei methionyl tRNA synthetase (MetRS): Luminescence-based cell-based high throughput dose response assay to identify compounds that are cytotoxic to Jurkat human T lymphocyte cells.; format: functional
# [11] = biological target: T1, Methionyl-tRNA synthetase, putative; format: functional, Trypanosoma brucei brucei strain 927/4 GUTat10.1; remark: listed apart in the source
# Transthyretin = Transthyretin (Homo sapiens, UniProt P02766); experiment: Luminescence-based cell-based high throughput dose response assay to identify activators of Transthyretin (TTR) transcription.; format: functional
# [12] = biological target: Heat shock protein HSP 90-alpha (Homo sapiens, UniProt P07900); experiment: Luminescence-based dose response biochemical high throughput screening assay for inhibitors of the Heat Shock Protein 90 (HSP90). [Related pubchem assays: 1831 (Summary AID.), 1846 (Confirmation screen.), 1789 (Primary screen.)]
# [13] = biological target: Disintegrin and metalloproteinase domain-containing protein 17 (Homo sapiens, UniProt P78536); experiment: ADAM17 protease inhibitors, dose response, counter-screen for ADAM10 exosite inhibitor project, biochemical, quenched FRET substrate (AID 743253)
# [14] = system: Streptococcus sp. 'group A'; experiment: growth inhibition of control SK(-) GAS strain, dose response, counter-screen for streptokinase expression inhibitor project, luminescence, kanamycin, BacTiterGlo, confirmation (AID 1900); format: functional, organism-based
# Streptococcus = experiment: Group A Streptococcus viability loss, dose response, counter-screen for streptokinase expression inhibitor project, luminescence, BacTiterGlo (AID 1915); format: functional, organism-based;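 note: potency for reduction of bacterial viability or growth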
# Streptokinase A = biological target: T2, Streptokinase A (Streptococcus pyogenes serotype M1, UniProt P10520); experiment: S. pyogenes streptokinase expression inhibitors, potency, dose response, plasminogen activation absorbance, OD405 (AID 1914); format: functional, Streptococcus pyogenes M1 GAS;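 note: secreted streptokinase activity via plasminogen activation per viability signal from cell pellet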
# T2 sequence (P10520 whole entry): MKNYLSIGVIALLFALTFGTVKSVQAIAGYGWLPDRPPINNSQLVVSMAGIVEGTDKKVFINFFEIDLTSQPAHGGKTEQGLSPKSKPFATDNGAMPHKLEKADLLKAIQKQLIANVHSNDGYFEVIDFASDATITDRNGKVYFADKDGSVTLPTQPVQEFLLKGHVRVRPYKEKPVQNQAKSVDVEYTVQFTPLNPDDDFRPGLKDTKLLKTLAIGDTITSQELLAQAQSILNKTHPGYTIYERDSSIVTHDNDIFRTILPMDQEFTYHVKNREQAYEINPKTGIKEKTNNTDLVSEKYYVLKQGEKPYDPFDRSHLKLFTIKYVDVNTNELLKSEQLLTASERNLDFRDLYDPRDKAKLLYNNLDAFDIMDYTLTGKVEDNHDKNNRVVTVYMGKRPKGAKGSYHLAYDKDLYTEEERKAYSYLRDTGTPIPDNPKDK
# [15] = biological target: T3, Corticotropin-releasing factor receptor 2/Corticotropin-releasing factor-binding protein (Homo sapiens, UniProt P24387+Q13324); experiment: activators of CRF receptor 2 with binding protein – uHTS hits, confirmation (AID 602473); format: functional; settings: read-out: EC50_Mean
# T3 sequence (Q13324 whole entry): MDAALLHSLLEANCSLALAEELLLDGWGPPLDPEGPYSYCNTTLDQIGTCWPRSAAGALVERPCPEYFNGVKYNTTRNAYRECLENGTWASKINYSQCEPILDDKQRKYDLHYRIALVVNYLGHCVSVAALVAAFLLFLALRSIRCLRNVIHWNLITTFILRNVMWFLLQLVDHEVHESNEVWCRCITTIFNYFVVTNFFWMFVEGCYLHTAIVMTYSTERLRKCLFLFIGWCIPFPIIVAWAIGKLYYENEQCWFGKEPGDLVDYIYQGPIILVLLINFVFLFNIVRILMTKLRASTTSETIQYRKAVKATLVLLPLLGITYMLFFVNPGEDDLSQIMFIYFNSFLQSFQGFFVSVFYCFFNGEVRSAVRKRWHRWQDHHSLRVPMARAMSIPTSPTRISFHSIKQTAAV
# T3 sequence (P24387 whole entry): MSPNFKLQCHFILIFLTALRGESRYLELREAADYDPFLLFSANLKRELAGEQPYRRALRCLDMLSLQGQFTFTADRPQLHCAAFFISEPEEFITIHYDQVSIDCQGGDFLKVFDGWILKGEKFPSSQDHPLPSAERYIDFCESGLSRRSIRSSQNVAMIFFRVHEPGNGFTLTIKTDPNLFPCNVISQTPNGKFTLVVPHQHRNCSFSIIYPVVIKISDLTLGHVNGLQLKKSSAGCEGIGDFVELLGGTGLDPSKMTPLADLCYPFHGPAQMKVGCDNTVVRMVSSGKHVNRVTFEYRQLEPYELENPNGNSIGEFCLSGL
# HEK293 = experiment: HEK293T cell cytotoxicity, dose response, cytotoxicity control, ATP luminescence, cherry-pick samples (AID 687005); format: functional, cell-based; settings: Homo sapiens;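 note: cells exposed to compound for 48 hours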
# Cytochrome P450 3A4 = Cytochrome P450 3A4 (Homo sapiens, UniProt P08684);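 note: CYP3A4 tested as one member of a cytochrome P450 panel screen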
# Prothrombin = Prothrombin (Homo sapiens, UniProt P00734); experiment: Thrombin 1536 HTS Dose Response Confirmation. [Related pubchem assays: 1046 (Thrombin 1536 HTS; hits were confirmed in this assay)]; format: functional
# [16] = HEK293 Cytotoxicity Assay Measured in Cell-Based System Using Plate Reader - 7071-01_Inhibitor_Dose_CherryPick_Activity_Set2.; format: functional
# [17] = biological target: T3, Corticotropin-releasing factor receptor 2/Corticotropin-releasing factor-binding protein; experiment: Dose Response confirmation of uHTS hits for small molecule antagonists of the CRF-binding protein and CRF-R2 receptor complex.; format: functional; settings: read-out: IC50_Mean
# [18] = CRF-BP/CRF-R2 complex antagonists, dose response, cell-based, uHTS hits, 384-well (AID 651639); format: functional, Homo sapiens; settings: read-out: IC50_Mean
# Protein Tat = Protein Tat (Human immunodeficiency virus type 1 group M subtype B (isolate HXB2)(HIV-1), UniProt P04608); format: functional;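 note: tat binding to TAR RNA read out by fluorescence polarization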
# [19] = HeLa 2N DNA content increase, dose response, cell-based, IC50 (AID 1117349); format: functional
# [20] = HeLa 4N DNA content increase, dose response, cell-based, IC50 (AID 1117351); format: functional
# cells [21] = format: functional, cell-based; settings: INS-1E
# [22] = Dose-response inhibition of insulin secretion in a rat insulinoma line at 5 mM glucose (AID 1117331); format: functional, cell-based; settings: INS-1E
# [23] = biological target: T4, Oxysterols receptor LXR-beta (Homo sapiens, UniProt P55055); format: functional, cell-based;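 note: Cell-based luminescence dose-response assay of agonist activity at LXR, run as a confirmatory counterscreen to a daf-12 agonist screen; HEK293 cells with Gal4-LXR fusion and GAL4-driven luciferase reporter; agonist potency from rising luciferase signal of a Gal4-LXR reporter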
# T4 sequence (P55055 whole entry): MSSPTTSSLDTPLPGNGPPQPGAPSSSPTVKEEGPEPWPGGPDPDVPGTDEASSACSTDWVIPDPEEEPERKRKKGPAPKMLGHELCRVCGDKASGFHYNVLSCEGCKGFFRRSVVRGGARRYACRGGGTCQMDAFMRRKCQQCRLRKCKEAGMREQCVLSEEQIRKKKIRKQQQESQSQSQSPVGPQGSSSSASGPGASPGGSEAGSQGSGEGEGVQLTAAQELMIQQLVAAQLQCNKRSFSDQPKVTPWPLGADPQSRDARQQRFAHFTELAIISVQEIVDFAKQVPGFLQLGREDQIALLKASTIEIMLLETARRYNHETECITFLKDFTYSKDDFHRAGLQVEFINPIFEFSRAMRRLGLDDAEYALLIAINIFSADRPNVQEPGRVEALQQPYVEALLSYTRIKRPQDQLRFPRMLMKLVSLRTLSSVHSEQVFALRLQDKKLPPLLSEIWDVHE
# [24] = HEp-2 cell cytotoxicity, dose response, cytotoxicity control for RSV inhibitor project, HTS (AID 2410); format: functional; settings: human respiratory syncytial virus
# cells [25] = experiment: cells
# [26] = biological target: Dual specificity tyrosine-phosphorylation-regulated kinase 1A (Rattus norvegicus, UniProt Q63470); format: biochemical, Homo sapiens
# Sequence of Aryl hydrocarbon receptor (P35869 whole entry): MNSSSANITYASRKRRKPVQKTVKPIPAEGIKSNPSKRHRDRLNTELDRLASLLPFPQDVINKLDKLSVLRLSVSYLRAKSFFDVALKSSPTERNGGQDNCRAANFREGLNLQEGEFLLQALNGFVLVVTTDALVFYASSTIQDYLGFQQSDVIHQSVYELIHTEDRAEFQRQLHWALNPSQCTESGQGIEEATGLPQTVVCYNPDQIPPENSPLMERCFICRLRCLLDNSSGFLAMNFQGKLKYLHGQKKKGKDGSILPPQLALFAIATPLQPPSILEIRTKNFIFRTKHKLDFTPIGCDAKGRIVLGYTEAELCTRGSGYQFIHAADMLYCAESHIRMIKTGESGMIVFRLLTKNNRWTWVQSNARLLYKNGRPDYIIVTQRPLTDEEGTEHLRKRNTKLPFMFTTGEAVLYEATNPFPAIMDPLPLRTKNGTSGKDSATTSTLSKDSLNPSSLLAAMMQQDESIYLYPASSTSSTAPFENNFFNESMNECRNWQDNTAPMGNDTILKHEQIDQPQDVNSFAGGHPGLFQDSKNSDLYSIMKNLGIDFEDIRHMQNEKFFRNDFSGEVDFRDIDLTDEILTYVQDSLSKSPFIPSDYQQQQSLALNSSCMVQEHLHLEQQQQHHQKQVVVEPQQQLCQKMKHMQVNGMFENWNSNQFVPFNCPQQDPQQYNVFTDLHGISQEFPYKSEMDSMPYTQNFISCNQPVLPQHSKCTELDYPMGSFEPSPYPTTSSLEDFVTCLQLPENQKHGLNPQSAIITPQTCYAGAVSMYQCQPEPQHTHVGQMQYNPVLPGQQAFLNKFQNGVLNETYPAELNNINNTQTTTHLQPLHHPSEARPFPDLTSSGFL
# Sequence of Protein Tat (P04608 whole entry): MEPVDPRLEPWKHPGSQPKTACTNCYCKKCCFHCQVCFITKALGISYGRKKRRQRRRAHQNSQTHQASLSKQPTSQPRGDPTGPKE
# Sequence of Cytochrome P450 3A4 (P08684 whole entry): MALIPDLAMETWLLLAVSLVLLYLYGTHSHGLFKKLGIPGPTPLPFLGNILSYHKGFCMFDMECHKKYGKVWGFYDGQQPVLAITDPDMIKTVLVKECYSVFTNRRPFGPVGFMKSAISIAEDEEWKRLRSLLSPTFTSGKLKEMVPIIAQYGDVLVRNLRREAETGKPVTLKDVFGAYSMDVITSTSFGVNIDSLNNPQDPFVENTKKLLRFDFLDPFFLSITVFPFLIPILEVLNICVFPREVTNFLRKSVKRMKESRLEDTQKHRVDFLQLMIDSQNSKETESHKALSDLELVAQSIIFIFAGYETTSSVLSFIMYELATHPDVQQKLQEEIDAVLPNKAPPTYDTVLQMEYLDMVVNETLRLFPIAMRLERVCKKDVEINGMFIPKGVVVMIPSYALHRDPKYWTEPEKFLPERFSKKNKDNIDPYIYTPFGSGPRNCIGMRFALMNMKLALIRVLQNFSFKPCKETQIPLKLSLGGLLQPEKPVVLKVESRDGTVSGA
# Sequence of Disintegrin and metalloproteinase domain-containing protein 17 (P78536 whole entry, the tested form may be a part): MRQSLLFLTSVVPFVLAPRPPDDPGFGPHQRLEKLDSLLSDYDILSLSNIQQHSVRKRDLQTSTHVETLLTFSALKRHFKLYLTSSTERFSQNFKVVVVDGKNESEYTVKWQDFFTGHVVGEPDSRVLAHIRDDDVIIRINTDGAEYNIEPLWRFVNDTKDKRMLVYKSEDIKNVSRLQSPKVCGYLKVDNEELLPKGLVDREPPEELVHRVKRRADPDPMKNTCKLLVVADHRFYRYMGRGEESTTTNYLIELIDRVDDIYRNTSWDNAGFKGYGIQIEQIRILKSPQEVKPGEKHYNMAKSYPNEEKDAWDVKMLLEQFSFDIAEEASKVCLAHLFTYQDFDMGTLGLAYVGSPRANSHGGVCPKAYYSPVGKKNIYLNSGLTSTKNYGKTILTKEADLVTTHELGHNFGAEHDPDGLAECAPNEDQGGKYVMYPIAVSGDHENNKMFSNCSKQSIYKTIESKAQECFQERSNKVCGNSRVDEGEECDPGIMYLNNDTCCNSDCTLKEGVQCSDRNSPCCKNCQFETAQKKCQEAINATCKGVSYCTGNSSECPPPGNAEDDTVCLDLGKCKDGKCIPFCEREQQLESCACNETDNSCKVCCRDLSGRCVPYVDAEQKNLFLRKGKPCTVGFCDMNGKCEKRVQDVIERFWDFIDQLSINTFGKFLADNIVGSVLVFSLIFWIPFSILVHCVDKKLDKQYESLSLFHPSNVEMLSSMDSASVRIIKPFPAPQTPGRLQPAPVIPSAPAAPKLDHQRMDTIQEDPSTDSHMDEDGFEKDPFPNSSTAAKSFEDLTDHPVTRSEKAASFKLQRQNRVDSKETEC
smiles,measurement,setting,value
CN1CCN(c2ccc(NC(=O)c3sc4ccccc4c3Cl)cc2)CC1,AC50,[1],7.85 µM (active)
same,AC50,[2],22 µM (active)
same,EC50,[3],> 377 nM (active)
same,AC50,[4],25.5 µM (active)
same,AC50,[5],2.49 µM (active)
COc1ccc2c3c(n(C)c2c1)[C@H](CO)NCC31CN(Cc2ccc(-c3ccccn3)cc2)C1,AC50,[6],1.15 µM (active)
same,AC50,[7],11.6 µM (active)
Cc1nc2ccc(Br)cc2c(O)c1CN1CCCCCC1,IC50,[8],6.91 µM (active)
same,IC50,[9],> 83.3 µM (inactive)
same,IC50,[10],83.3 µM (inactive)
same,IC50,[11],4.16 µM (active)
COc1ccc(-c2noc(-c3cccs3)n2)cc1OC,EC50,Transthyretin,> 167 µM (inactive)
Cc1ccc(C(=O)CSc2ccccc2C(=O)O)cc1,IC50,[12],10.8 µM (not active)
O=[N+]([O-])c1cccnc1N1CCC(c2cc(-c3ccc(Cl)cc3)[nH]n2)CC1,IC50,[13],> 69.5 µM (inactive)
same,EC50,[14],5.14 µM (active)
same,EC50,Streptococcus,9.6 µM (active)
same,EC50,Streptokinase A,33.3 µM (active)
Cc1ccccc1-n1ncc2c(SCC(=O)N3c4ccccc4CC3C)ncnc21 (stereo not given),EC50,[15],> 53 µM (inactive)
same,AC50,HEK293,15.4 µM (active)
same,AC50,Cytochrome P450 3A4,inconclusive
same,IC50,Prothrombin,> 50 µM (not active)
same,AC50,[16],15.4 µM (active)
same,IC50,[17],11 µM (active)
same,IC50,[18],11.7 µM (active)
C[C@@H]1CN([C@@H](C)CO)C(=O)c2c(c3ccccc3n2C)-c2ccccc2CO[C@@H]1CN(C)Cc1cccc(F)c1,AC50,[6],3.5 µM (active)
same,AC50,[7],23.5 µM (active)
O=C(NCc1nc2ccccc2[nH]1)C1=C[C@@H](C2CC2)C[C@@H](OCc2ccc(CO)cc2)O1,IC50,[8],1.62 µM (active)
same,IC50,[9],> 83.3 µM (inactive)
same,IC50,[10],83.3 µM (inactive)
same,IC50,[11],0.811 µM (active)
[O-][n+]1onc2c3cc(-c4ccccc4)nnc3ccc21,EC50,[3],1480 nM (active)
CCOc1ccc(-c2nnn(CC(=O)c3ccc4c(c3)OCCO4)n2)cc1OCC,IC50,Protein Tat,> 100 µM (active)
COc1ccc(-c2nc3cc(C4=NNC(=O)CC4C)ccc3[nH]2)cc1 (stereo not given) [PIMOBENDAN],IC50,[19],> 10 µM (inactive)
same,IC50,[20],> 10 µM (inactive)
COc1cc(C(=O)OCCCN2CCCN(CCCOC(=O)c3cc(OC)c(OC)c(OC)c3)CC2)cc(OC)c1OC [DILAZEP],IC50,cells [21],18 µM (inactive)
same,IC50,[22],10.2 µM (inactive)
Oc1ccc(-c2nccc(-c3cccs3)n2)cc1,EC50,[23],> 67.6 µM (inactive)
same,CC50,[24],27.9 µM (active)
same,EC50,cells [25],> 67.6 µM (inactive)
same,AC50,[26],6.5 µM (active)
